In brackets after ≈: the same amount, converted by molar mass.
How the values were obtained:
[1] = system: Cryptococcus neoformans (MY2061); experiment: broth microdilution assay (MIC/MFC); assay type: cell-based
Procedure: (§1) In the microbroth dilution assay, microorganisms were selected by streaking a yeast culture on Sabouraud dextrose agar (SDA) and incubating for 24-48 hours at 35°-37° C. Three to five characteristic colonies were selected and transferred to a fresh plate and incubated under similar conditions. From the regrowth, 3 to 5 colonies were selected and suspended in 10 milliliters of YM broth (Difco) and incubated for 4 hours at 35°-37° C. shaking at 225 rpm. The 4 hour broth cultures were adjusted optically to 86% transmission resulting in a concentration of 1-5×10^6 cfu/ml which was further diluted 1:100 in YNBD (yeast nitrogen base with 1% dextrose) to obtain a concentration of 1-5×10^4 cfu/ml for use as inocula.
(§2) The test compound was dissolved at […] in 10% DMSO and diluted 2× into the first well to achieve a concentration of 256 μg/ml at 5% DMSO in the first well. Compounds are subsequently serially diluted 2× and cell suspension is added to each well resulting in an additional 2× dilution of compound. 75 μl of said solution is delivered to each well in column 1 of a 96-well, U-bottomed plate. The compounds in column 1 were then serially diluted two-fold to yield concentrations from 128 μg/ml to 0.03 μg/ml.
(§3) The plates containing the diluted compounds were then inoculated with 75 μl/well of the appropriate microorganism and incubated for 48 hours at 35°-37° C. with MIC (minimum inhibitory concentration) determinations carried out after 24 hours of incubation (except Cryptococcus strains which are read at 48 hours). Growth and sterility controls for each organism and sterility checks for the compounds also were carried out.
(§4) After recording MICs at 24 hours, the microtiter plates were shaken gently to resuspend the cells. A 1.5 μl sample was transferred from each well of the 96-well plate to a single reservoir inoculum plate containing SDA. The inoculated SDA and corresponding microtiter plates were incubated for 24 hours at 35°-37° C. For Cryptococcus neoformans, SDA plates were inoculated at 48 hours after recording MICs and incubated 48 hours before reading the MFC. MFC is the lowest concentration of compound at which either no growth or growth of <4 colonies occur.

[2] = system: Candida albicans (MY1055); experiment: broth microdilution assay (MIC/MFC); assay type: cell-based; settings: 24 hours, 35°-37° C.
Procedure: as §1, §2, §3, §4

[3] = system: Saccharomyces cerevisiae (MY2140); experiment: broth microdilution assay (MIC/MFC); assay type: cell-based; settings: 24 hours, 35°-37° C.
Procedure: as §1, §2, §3, §4

Candida krusei = experiment: broth microdilution assay (MIC/MFC); assay type: cell-based; settings: Pichia kudriavzevii, 24 hours, 35°-37° C.
Procedure: as §1, §2, §3, §4

[4] = system: Candida pseudotropicalis (MY2099); experiment: broth microdilution assay (MIC/MFC); assay type: cell-based; settings: Kluyveromyces marxianus, 24 hours, 35°-37° C.
Procedure: as §1, §2, §3, §4

Candida albicans (CA2) = experiment: broth microdilution assay (MIC/MFC); assay type: cell-based; settings: 24 hours, 35°-37° C.
Procedure: as §1, §2, §3, §4

[5] = system: Candida guillermondii (MY1019); experiment: broth microdilution assay (MIC/MFC); assay type: cell-based; settings: 24 hours, 35°-37° C.
Procedure: as §1, §2, §3, §4

[6] = system: Cryptococcus neoformans (MY2062); experiment: broth microdilution assay (MIC/MFC); assay type: cell-based
Procedure: as §1, §2, §3, §4

[7] = system: Candida glabrata (MY1381); experiment: broth microdilution assay (MIC/MFC); assay type: cell-based; settings: Nakaseomyces glabratus, 24 hours, 35°-37° C.
Procedure: as §1, §2, §3, §4

[8] = system: Candida albicans (CLY539); experiment: broth microdilution assay (MIC/MFC); assay type: cell-based; settings: 24 hours, 35°-37° C.
Procedure: as §1, §2, §3, §4

[9] = system: Candida tropicalis (MY1012); experiment: broth microdilution assay (MIC/MFC); assay type: cell-based; settings: 24 hours, 35°-37° C.
Procedure: as §1, §2, §3, §4

[10] = system: Candida parapsilosis (MY1010); experiment: broth microdilution assay (MIC/MFC); assay type: cell-based; settings: Lodderomyces parapsilosis, 24 hours, 35°-37° C.
Procedure: as §1, §2, §3, §4

[11] = system: Candida tropicalis (MY1124); experiment: broth microdilution assay (MIC/MFC); assay type: cell-based; settings: 24 hours, 35°-37° C.
Procedure: as §1, §2, §3, §4

panel of fungi = experiment: broth microdilution assay, comparison with amphotericin B; assay type: cell-based; settings: MIC and MFC
Procedure: as §1, with “inocula. […]” for “inocula.”
The plates containing the diluted compounds were then inoculated with 75 μl/well of the appropriate microorganism and incubated for 48 hours at 35°-37° C. with MIC (minimum inhibitory concentration) determinations carried out after 24 hours of incubation (except Cryptococcus strains which are read at 48 hours). […]
After recording MICs at 24 hours, the microtiter plates were shaken gently to resuspend the cells. […] For Cryptococcus neoformans, SDA plates were inoculated at 48 hours after recording MICs and incubated 48 hours before reading the MFC. […]

[12] = system: Aspergillus fumigatus (MY5668); experiment: broth microdilution assay (MIC/MEC); assay type: cell-based; settings: 24 hours
Procedure: as §1, §2, §3
(§5) No MFC values are indicated for Aspergillus fumigatus since colony counts are unreliable with filamentous species. Instead, a Minimum Effective Concentration (MEC) is reported. The MEC is defined as the lowest concentration of drug which effects a severe morphological change in the cells. The MEC is scored macroscopically by direct observation of the plate wells after 24 hours and reflects microscopic alterations in cell morphology (Kurtz et al, AAC 1994 38:1480-1489).

[13] = system: Aspergillus fumigatus (MY4839); experiment: broth microdilution assay (MIC/MEC); assay type: cell-based; settings: 24 hours
Procedure: as §1, §2, §3, §5

[14] = interconversion of the two diastereomers; assay type: physicochemical; settings: normal temperatures
[15] = system: Aspergillus flavus, Fusarium oxysporum, Ustilago zeae and the like; experiment: agar plate inhibition zone test against filamentous fungi; assay type: cell-based; settings: agar plates, methanol solutions, 28° C. or 37° C., 24 hours
Procedure: The compound is also useful for inhibiting the growth of filamentous fungi. Such use may be illustrated in the following tests with Aspergillus flavus, Fusarium oxysporum, Ustilago zeae and the like. Inocula for filamentous fungi are prepared by scraping the surface of stock plates maintained on potato dextrose agar with a moistened sterile dacron swab. The spores and mycelia are then suspended in 10 milliliters of sterile potato dextrose broth and adjusted to 70 percent transmission at 660 nm. The samples to be tested for production of antifungal agent are applied directly to the agar plates as methanol solutions. When the sample to be tested is crude broth, it may be centrifuged prior to application. The assay plates are then incubated at either 28° C. or 37° C. for 24 hours. Following incubation, the inhibition zones are measured. Effects on growth are also noted as to appearance.

[16] = SDA inoculated at 48 hours, incubated 48 hours, no growth or <4 colonies, read-out: MFC (minimum fungicidal concentration)
[17] = read at 48 hours, 35°-37° C., read-out: MIC (minimum inhibitory concentration)
[18] = read-out: MIC (minimum inhibitory concentration)
[19] = SDA, no growth or <4 colonies, read-out: MFC (minimum fungicidal concentration)
[20] = 35°-37° C., read-out: MIC (minimum inhibitory concentration)
[21] = lowest concentration effecting severe morphological change, read-out: MEC (Minimum Effective Concentration)

For `CC(=O)OC1CC23C4=CCC5(C)C(C(=O)O)C(C)(C(C)C(C)C)CCC5(C)C4CCC2C(C)(COC3O)C1OC1OC(CO)C(O)C(O)C1O` (stereo not drawn) [Compound I], the MFC [1, 16] was 32 µg/mL (≈ 45.1 µM), the MIC [1, 17] was 32 µg/mL (≈ 45.1 µM) and the MIC [2, 18] was 0.5 µg/mL (≈ 0.705 µM). The MFC [2, 19] was 0.25 µg/mL (≈ 0.353 µM), the MIC [3, 18] was 2 µg/mL (≈ 2.82 µM) and the MFC [3, 19] was 2 µg/mL (≈ 2.82 µM). The MIC (Candida krusei; [18]) was 4 µg/mL (≈ 5.64 µM), the MFC (Candida krusei; [19]) was 1 µg/mL (≈ 1.41 µM) and the MIC [4, 18] was 0.5 µg/mL (≈ 0.705 µM). It also gave an MFC [4, 19] of 1 µg/mL (≈ 1.41 µM), an MIC (Candida albicans (CA2); [18]) greater than 128 µg/mL and an MFC (Candida albicans (CA2); [19]) greater than 128 µg/mL. It also gave an MIC [5, 18] of 1 µg/mL (≈ 1.41 µM), an MFC [5, 19] of 2 µg/mL (≈ 2.82 µM) and an MFC [6, 16] of 128 µg/mL (≈ 181 µM). It also gave an MIC [6, 17] of 32 µg/mL (≈ 45.1 µM), an MIC [7, 18] of 1 µg/mL (≈ 1.41 µM) and an MFC [7, 19] of 0.5 µg/mL (≈ 0.705 µM). For the same molecule, the MIC [8, 18] was 0.5 µg/mL (≈ 0.705 µM), the MFC [8, 19] was 0.5 µg/mL (≈ 0.705 µM) and the MIC [9, 18] was 1 µg/mL (≈ 1.41 µM). It also gave an MFC [9, 19] of 1 µg/mL (≈ 1.41 µM), an MIC [10, 18] of 0.25 µg/mL (≈ 0.353 µM) and an MFC [10, 19] of 0.25 µg/mL (≈ 0.353 µM). For the same molecule, the MIC [11, 18] was 16 µg/mL (≈ 22.6 µM), the MFC [11, 19] was 16 µg/mL (≈ 22.6 µM) and the “effectiveness against a panel of fungi, compared with amphotericin B” value (panel of fungi) was “at concentrations comparable to an established antifungal agent, amphotericin B”. It also gave an MIC [12, 20] of 32 µg/mL (≈ 45.1 µM), a minimal effective concentration [12, 21] of 0.031 µg/mL and an MIC [13, 20] of 64 µg/mL (≈ 90.3 µM). For the same molecule, the minimal effective concentration [13, 21] was 0.031 µg/mL, the “reequilibration of separated diastereomers” value [14] was “reequilibrate at normal temperatures” and the “inhibition of growth of filamentous fungi” value [15] was “effectively inhibit growth of the fungal organisms”.
